Data published in patent US20120208873A1, “TEA POLYPHENOLS PRODUCTS FOR CEASING SMOKING AND TREATING AND/OR PREVENTING NICOTINE OR NICOTINE-DERIVED COMPOUNDS OR ESTROGEN INDUCED BREAST CANCER” (priority 2011, published 2012).

Assays:
Type in all cases: cell-based, human
MCF-7 cells = experiment: Cell proliferation (MTT assay) in MCF-7 cells
Procedure: Human mammary gland epithelial adenocarcinomas (MCF7, MDA-MB-231, AU-565, MDA-MB-453, and BT-483) and normal human mammary gland epithelial fibrocystic cell lines (MCF-10A and HBL-100) were purchased from ATCC (American Type Culture Collection, Manassas, Va., USA). MCF-7, MDA-MB-231, and MDA-MB-453 cells were maintained in DMEM, whereas BT-483 cells were maintained in RPMI-1640. Cell growth, proliferation, and viability were determined by the 3-(4,5-dimethylthiazol-2-yl)-2,5-diphenyltetrazolium (MTT) assay. The formazan product was measured by absorbance at 540 nm.

p-AKT (Ser^473) = experiment: phosphorylated AKT by immunoblotting in MCF-7 cells; conditions: EGCG 10 μM 24 h pretreatment, then Nic 10 μM or E2 10 nM 24 h
Procedure: To prepare protein samples, cells were washed once with ice-cold PBS and lysed on ice in cell lysis buffer (50 mM Tris-HCl, pH 8.0, 120 mM […], 0.5% Nonidet P-40, 100 mM sodium fluoride, and 200 μM sodium orthovanadate) containing protease inhibitors as described previously (Shih, Y. L., Liu, H. C., Chen, C. S., Hsu, C. H. et al., J. Agric. Food Chem. 2010, 58, 235-241). Protein (50 μg) from each sample was resolved by 12% SDS-polyacrylamide gel electrophoresis, transferred, and analyzed by Western blotting. Antibodies were purchased from the following vendors: anti-total AKT and protein A/G agarose beads were obtained from Santa Cruz Biotechnology (Santa Cruz, Calif., USA); anti-GAPDH and anti-α9-nAChR antibodies were from Abcam (Cambridge, UK); antiphospho AKT (Ser^473), anti-c-Jun, and anti-c-Fos were from Cell Signaling Technology (Beverly, Mass., USA). The secondary antibodies, alkaline phosphatase-coupled anti-mouse, and anti-rabbit IgG were purchased from Santa Cruz Biotechnology. The specific protein complexes were identified with the chromogenic substrates nitro blue tetrazolium, and 5-bromo-4-chloro-3-indolyl-phosphate from KPL (Gaithersburg, Md., USA). In each experiment, proteins were also probed with anti-GAPDH antibodies as a protein-loading control.

AP-1 = experiment: ChIP assay of AP-1 binding to the α9-nAChR promoter in MCF-7 cells; conditions: EGCG 10 μM 24 h pretreatment, Nic 10 μM
Procedure: Chromatin immunoprecipitation (ChIP) assays of cultured cells were performed as described previously (Chen, C. S., Lee, C. H., Hsieh, C. D., Ho, C. T. et al., Breast Cancer Res. Treat. 2010; Shih, Y. L., Liu, H. C., Chen, C. S., Hsu, C. H. et al., J. Agric. Food Chem. 2010, 58, 235-241). Briefly, after various regimens of Nic treatment, the cells were fixed with a final concentration of 1% formaldehyde directly added to the cell culture medium at 25° C. for 15 min. The crosslinking reaction was terminated with 0.125 M glycine for 5 min, and the cells were collected into a new Eppendorf tube. The cell lysate was sonicated three times with 10 s bursts to yield input DNA enriched for fragments around 1000 bp in size. A c-Jun (AP-1) antibody (Santa Cruz Biotechnology) was used for the immunoprecipitation reactions. Primers, which detect the a9-nAChR promoter regions, amplified a region from −960 to −1 for 32 cycles (forward: 5′-ATGCAATG CAAGCCTGAGCT-3′ (SEQ ID NO:2) and reverse: 5′-TATA-[…]-3′ (SEQ ID NO:3)). The PCR products were then separated and analyzed by agarose gel electrophoresis.

α9-nAChR mRNA = α9-nAChR mRNA by RT-PCR / real-time PCR in MCF-7 cells; conditions: 24 h
Procedure: Total RNA was isolated from human cell lines using TRIzol (Invitrogen, Carlsbad, Calif., USA) according to the manufacturer's protocol. The α9-nAChR subunit-specific primers were synthesized by MB Mission BioTech (Taipei, Taiwan) as described in the previous reports (Chen, C. S., Lee, C. H., Hsieh, C. D., Ho, C. T. et al., Breast Cancer Res. Treat. 2010; Shih, Y. L., Liu, H. C., Chen, C. S., Hsu, C. H. et al., J. Agric. Food Chem. 2010, 58, 235-241). The PCR amplicons were analyzed on 1.2% agarose gels (Amresco, Solon, Ohio, USA) stained with ethidium bromide. The α9-nAChR mRNA intensity was measured and normalized to β-glucuronidase expression. Pictures of the bands were taken using an INFINITY-α digital imaging system (Vilber Lourmat, France), and band intensities were determined using PhotoCapt Version 11.01 software.

O=C(O[C@@H]1Cc2c(O)cc(O)cc2O[C@@H]1c1cc(O)c(O)c(O)c1)c1cc(O)c(O)c(O)c1 [EGCG, (−)-epigallocatechin-3-gallate]
Nic-induced cellular proliferation effects in (C) and (Sc) cells (MCF-7 cells; EGCG 10 μM, 24 h pretreatment, then Nic 10 μM 24 h): reversed | Nic-stimulated proliferation (MCF-7 cells; MCF-7, EGCG 10-25 μM, 24 h pretreatment, dose-dependent): blocked | cell proliferation in Nic-treated α9-nAChR (Si) cells compared with Sc cells (MCF-7 cells; combined treatment with EGCG 10 μM and Nic 10 μM): profoundly inhibited | pAKT protein expression induced by either E2 or Nic (p-AKT (Ser^473)): significantly inhibited | Nic-induced AP-1 binding to the α9-nAChR promoter (AP-1): attenuated | α9-nAChR mRNA in Nic-treated cells (α9-nAChR mRNA; EGCG 1 μM with Nic 10 μM, RT-PCR): downregulated | Nic- or E2-induced α9-nAChR mRNA upregulation (real-time PCR) (α9-nAChR mRNA; EGCG 10 μM, Nic 10 μM or E2 10 nM): completely attenuated
